We go through ten molecules from patent US20260284095A1 (Mayo Foundation for Medical Education and Research, priority 2023, published 2026).

Series [1] concerns GMR>Tau Drosophila (tau-mediated eye degeneration). Description: Dasatinib in Drosophila tau eye degeneration model. The series is classed as in vivo, Drosophila melanogaster. The settings on record: fly food with dasatinib 1 μM or 10 μM vs DMSO 0.5%; flies aged 5 days; blinded eye score.
Series [2] relates to STOM. Description: ASO screen in H4 neuroglioma cells, STOM knock-down. The series is classed as cell-based. Conditions: ASO 10 nM and 100 nM in the screen. As to the method: (§1) Expression levels of DDR2, KANK2, and STOM were confirmed to have similar expression levels in the H4 neuroglioma cells (ATCC cat #HTB-148) and PSP brain homogenate (FIG. 27), and then ASOs described in Example 3 were screened for various characteristics in H4 cells. cDNA reverse transcription kits High-Capacity cDNA Reverse Transcription Kit (High-cap, Thermo Fisher Scientific, cat #4368814) and SuperScript™ IV VILO™ (VILO, Thermo Fisher Scientific, cat #11756050) were assessed. Both cDNA synthesis kits tested quantitatively reverse transcribed RNA into cDNA (FIG. 28). qPCR master mixes TaqMan™ Fast Advanced (Fast Advance, Thermo Fisher Scientific, cat #4444556) and TaqMan™ Universal PCR Master Mix (Universal, Thermo Fisher Scientific, cat #4364340) were assessed. Both qPCR master mixes quantitatively amplified cDNA and generated detectable signals (FIG. 29). Multiplexed qPCR assays were also performed. Duplexed gene quantification yielded similar results as singleton qPCR setups (FIG. 30). ASOs targeting PPIB were used as a positive control to confirm delivery of the ASOs to H4 cells and establish ASO screening parameters (FIG. 31).
(§2) ASOs described in Example 3 were screened in the H4 neuroglioma cells. Different concentrations of ASOs (10 nM and 100 nM) were administered and knock-down efficiency (measured by fold change of mRNA compared to non-targeting ASO treated controls) and ASO toxicity (measured by LDH assay) were determined (FIGS. 32A-32F).
(§3) Three ASO hits were selected for each target (DDR2: D4, D5, D9; KANK2: K4, K5, K10; STOM: S1, S4, S10). The knock-down efficiency (mRNA change) and ASO safety (cell toxicity as measured by LDH assay and viability as measured by XTT assay) were repeated/performed to validate the hits, as shown in FIG. 33A-33C.
(§4) Knock-down was assessed by measuring polypeptide levels (FIGS. 35, 40, 41) using western Blot.

For series [3], the system named is KANK2. The series is described as follows: ASO screen in H4 neuroglioma cells, KANK2 knock-down. The series is classed as cell-based. Conditions: ASO 10 nM and 100 nM in the screen. As to the method:
as §1, §2, §3, §4

The subject of series [4] is DDR2. Description: ASO screen in H4 neuroglioma cells, DDR2 knock-down. The series is classed as cell-based. Conditions: ASO 10 nM and 100 nM in the screen. Here is the method:
as §1, §2, §3, §4

The subject of series [5] is DDR2 mRNA. The series is described as follows: ASO D5 target engagement in iPSC-derived astrocytes. The series is classed as cell-based. Here is the method:
(§5) Induced pluripotent stem cells (iPSCs) were examined as a model to assess target engagement of the ASO D5 (targeting DDR2). […] ASO D5 was administered to iPSCs-derived astrocytes and neurons separately following the schematic depicted in FIGS. 38-39.

The subject of series [6] is DDR2 mRNA. The series is described as follows: ASO D5 target engagement in iPSC-derived neurons. The series is classed as cell-based. Here is the method:
as §5

On to `Cc1nc(Nc2ncc(C(=O)Nc3c(C)cccc3Cl)s2)cc(N2CCN(CCO)CC2)n1` [dasatinib], for which, in series [1], the tau-mediated eye degeneration result is listed as “dosage-dependent reduction”.
For the molecule “S10: ASO targeting STOM, ACACGCTCCACCTTTATTCC, 2'-MOE wings, phosphorothioate bonds (all phosphorothioate, sugars by position and methylation of C not given here; 2'-MOE wings)”, in series [2], the “knock-down efficiency of STOM (fold change of mRNA compared to non-targeting ASO; polypeptide by western blot)” value is given as “hits”.
As for “K4: ASO targeting KANK2, GCAAGCCAGTCTACATCAAG, 2'-MOE wings, phosphorothioate bonds (all phosphorothioate, sugars by position and methylation of C not given here; 2'-MOE wings)”, the “knock-down efficiency of KANK2 (fold change of mRNA compared to non-targeting ASO; polypeptide by western blot)” value in series [3] is on record as “hits”.
On to “S4: ASO targeting STOM, GCAATGGTGGTCAGTGTCTG, 2'-MOE wings, phosphorothioate bonds (all phosphorothioate, sugars by position and methylation of C not given here; 2'-MOE wings)”, for which the “knock-down efficiency of STOM (fold change of mRNA compared to non-targeting ASO; polypeptide by western blot)” value in series [2] is “hits”.
As to “K5: ASO targeting KANK2, CCCTCAGACACCCACAATTA, 2'-MOE wings, phosphorothioate bonds (all phosphorothioate, sugars by position and methylation of C not given here; 2'-MOE wings)”, the “knock-down efficiency of KANK2 (fold change of mRNA compared to non-targeting ASO; polypeptide by western blot)” value in series [3] was “hits”.
For “S1: ASO targeting STOM, GGACTACGAATTCACAAGGC, 2'-MOE wings, phosphorothioate bonds (all phosphorothioate, sugars by position and methylation of C not given here; 2'-MOE wings)”, the “knock-down efficiency of STOM (fold change of mRNA compared to non-targeting ASO; polypeptide by western blot)” value in series [2] is reported as “hits”.
Consider “K10: ASO targeting KANK2, CGTCCTGTCTTGCTTTGTCT, 2'-MOE wings, phosphorothioate bonds (all phosphorothioate, sugars by position and methylation of C not given here; 2'-MOE wings)”, for which, in series [3], the “knock-down efficiency of KANK2 (fold change of mRNA compared to non-targeting ASO; polypeptide by western blot)” value is listed as “hits”.
With “D9: ASO targeting DDR2, CTGCTCATTCCAAAGTCAGC, 2'-MOE wings, phosphorothioate bonds (all phosphorothioate, sugars by position and methylation of C not given here; 2'-MOE wings)”, the “knock-down efficiency of DDR2 (fold change of mRNA compared to non-targeting ASO; polypeptide by western blot)” value in series [4] is “hits”.
Consider “D5: ASO targeting DDR2, CACTCTTGCAGCAGACATTC, 2'-MOE wings, phosphorothioate bonds (all phosphorothioate, sugars by position and methylation of C not given here; 2'-MOE wings)”, for which the “DDR2 mRNA” value in series [5] and in series [6] was “reduced DDR2 mRNA” in each case. For the same molecule, the “knock-down efficiency of DDR2 (fold change of mRNA compared to non-targeting ASO; polypeptide by western blot)” value in series [4] is given as “hits”.
For “D4: ASO targeting DDR2, ACAGAGTCAGGACAAATGGC, 2'-MOE wings, phosphorothioate bonds (all phosphorothioate, sugars by position and methylation of C not given here; 2'-MOE wings)”, in series [4], the “knock-down efficiency of DDR2 (fold change of mRNA compared to non-targeting ASO; polypeptide by western blot)” value was “hits”.
